According to US12503484B2, “Androstane derivatives with activity as pure or predominantly pure stimulators of SERCA2a for the treatment of heart failure” (Seismic Pharmaceuticals, priority 2019, dated 2025):
Read-outs that look alike come from different tables or passages of the source. Marks after values point to notes of the source that are not given here.

How the values were obtained:
[1] = target: dog renal Na^+/K^+ ATPase (Canis lupus familiaris (Dog) (Canis familiaris), UniProt P50997); assay: biochemical; details: IC50 inhibition of dog renal Na+/K+ ATPase, purified dog kidney enzyme;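 note: enzyme preincubated with inhibitor 10 min at 37 °C, then K^+ and ^32P-ATP added for 15 min, released ^32P counted, activity relative to untreated control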
Description: Inhibition of Dog Renal Na^+/K^+ ATPase Activity
The compounds were thus tested for their inhibitory effect on the canine renal Na^+/K^+ ATPase enzyme.
Kidneys were excised from 1-3 year-old male beagle dogs (WuXi AppTec, Suzhou Co., Ltd. 1318 Wuzhong Ave., Wuzhong District Suzhou, 215104 P.R. China) under pentobarbital anesthesia (Import Authorization from Italian Health Ministry 0009171-09/04/2015-DGSAF-COD_UO-P, 2015). Kidneys were sliced and the outer medulla was dissected and suspended (1 g/10 ml) in a sucrose-histidine solution containing 250 mM sucrose, 30 mM histidine, and 5 mM EDTA, pH 7.2. The tissue was homogenized by using an Ultra Turrax homogenizer. The sample was centrifuged at 6,000 g for 15 min. Next, the supernatant was decanted and centrifuged at 48,000 g for 30 min. The pellet was suspended in the sucrose-histidine buffer and incubated for 20 min with a sodium-dodecyl-sulphate (SDS) solution dissolved in a gradient buffer containing 25 mM imidazole and 1 mM EDTA, pH 7.5. The sample was layered on the top of a sucrose discontinuous gradient (10, 15, and 29.4%) and centrifuged at 60,000 g for 115 min. The pellet was suspended in the gradient buffer.
Increasing concentrations of the standard ouabain, or tested compound, were incubated with 0.3 μg of purified dog kidney enzyme for 10 min at 37° C. in 120 μl final volume of a medium containing 140 mM NaCl, 3 mM MgCl2, 50 mM Hepes-Tris, 3 mM ATP, pH 7.5. Then, 10 μl of a solution containing 10 mM KCl and 20 nCi of ^32P-ATP (3-10 Ci/mmol, Perkin Elmer) were added. The reaction was allowed to continue for 15 min at 37° C. and then stopped by acidification with 20% v/v ice-cold perchloric acid. ^32P was separated by centrifugation with activated Charcoal (Norit A, Serva) and the radioactivity was counted. The inhibitory activity was expressed as percent of the control samples carried out in the absence of ouabain, or tested compound.

SERCA2a = SERCA2a (Cavia porcellus, UniProt A0A286XD73); assay: SERCA2a ATPase activity in heart-derived SR microsomes from normal guinea-pig; type: biochemical
Description: SERCA2a ATPase Activity in Heart-Derived SR Microsomes from Normal Quinea-Pig
SERCA2a activity was measured in vitro as ^32P-ATP hydrolysis at different Ca^2+ concentrations (100-4000 nM) in the absence and presence of the tested compounds, as described (Micheletti R. et al., Am J Card 2007, 99:24A-32A). Increasing concentrations of each compound (ranging from 1 to 200 nM) were pre-incubated with 2 μg of SERCA2a enriched microsomes for 5 min at 4° C. in 80 μl of a solution containing 100 mM KCl, 5 mM MgCl2, 1 μM A23187, 20 mM Tris, pH 7.5. […] SERCA2a-dependent activity was identified as the portion of total hydrolytic activity inhibited by 10 μM cyclopiazonic acid (Seidler N W et al., J Biol Chem. 1989, 264:17816-23).
Dose-response curves were fitted by using a sigmoidal equation and the activity at the maximal velocity (Vmax) and the Kd for Ca^2+ were calculated (Synergy Software KaleidaGraph 3.6). The effect of the compounds in normal guinea-pig preparations was expressed as % decrease of Kd Ca^2+ (implying an increase of affinity for Ca^2+) of a control sample run in the absence of compound (Table 2). […] Data are mean±SD, n=number of experiments, *at least p<0.05.

[2] = compound 10 nM, read-out: Kd Ca2+ (nM) mean ± SD
[3] = compound 100 nM, read-out: Kd Ca2+ (nM) mean ± SD
[4] = compound 200 nM, read-out: Kd Ca2+ (nM) mean ± SD
[5] = read-out: Kd Ca2+ (nM) mean ± SD, compound 100 nM
[6] = read-out: Kd Ca2+ (nM) mean ± SD, compound 200 nM
[7] = read-out: Kd Ca2+ (nM) mean ± SD, compound 10 nM
[8] = read-out: Kd Ca2+ (nM) mean ± SD, compound 1 nM

Sequence of SERCA2a (A0A286XD73 1-997): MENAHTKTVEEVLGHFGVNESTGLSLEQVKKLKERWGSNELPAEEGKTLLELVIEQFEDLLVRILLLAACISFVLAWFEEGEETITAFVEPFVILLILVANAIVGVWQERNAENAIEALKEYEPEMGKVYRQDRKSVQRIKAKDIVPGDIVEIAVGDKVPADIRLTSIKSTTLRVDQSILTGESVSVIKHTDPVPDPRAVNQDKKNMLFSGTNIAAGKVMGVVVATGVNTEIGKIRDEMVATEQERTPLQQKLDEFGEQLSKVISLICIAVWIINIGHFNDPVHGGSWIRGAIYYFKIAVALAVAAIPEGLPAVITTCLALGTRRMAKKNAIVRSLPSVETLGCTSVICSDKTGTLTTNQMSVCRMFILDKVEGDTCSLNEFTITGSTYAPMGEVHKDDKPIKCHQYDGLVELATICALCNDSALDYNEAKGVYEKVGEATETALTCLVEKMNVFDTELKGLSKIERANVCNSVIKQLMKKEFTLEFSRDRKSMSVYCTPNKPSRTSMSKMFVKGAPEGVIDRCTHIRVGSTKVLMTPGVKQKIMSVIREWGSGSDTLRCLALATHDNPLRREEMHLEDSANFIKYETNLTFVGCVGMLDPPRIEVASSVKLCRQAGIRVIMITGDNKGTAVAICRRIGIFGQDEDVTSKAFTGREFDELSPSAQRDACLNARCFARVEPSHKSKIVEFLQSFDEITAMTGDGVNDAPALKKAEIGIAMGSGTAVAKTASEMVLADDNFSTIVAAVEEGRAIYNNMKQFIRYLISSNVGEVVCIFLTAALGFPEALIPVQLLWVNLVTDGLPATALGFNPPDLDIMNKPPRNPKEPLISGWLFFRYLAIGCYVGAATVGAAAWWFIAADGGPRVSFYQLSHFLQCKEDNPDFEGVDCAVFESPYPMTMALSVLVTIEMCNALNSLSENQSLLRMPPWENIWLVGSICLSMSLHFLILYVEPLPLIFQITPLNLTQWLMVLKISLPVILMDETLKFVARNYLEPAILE

SMILES	IC50 [1] [nM]	% change in Ca2+ Kd vs control (negative = decrease) (SERCA2a; compound 100 nM)	Kd (SERCA2a; [3]) [nM]	% change in Ca2+ Kd vs control (negative = decrease) (SERCA2a; compound 200 nM)	further results
C[C@]12CCC(=CCCCN)CC1[C@@H](O)C[C@@H]1[C@@H]2CC[C@]2(C)C(=O)CC[C@@H]12 (mixture of isomers) [CVie209, (EZ)-3-(4-aminobutyliden]-6alpha-hydroxyandrostane-17-one]	800	–	–	–	–
C[C@]12CCC(=CCC3CCNC3)CC1[C@@H](CO)C(=O)C1C2CC[C@]2(C)C(=O)CCC12 (mixture of isomers) [CVie402, (E,Z)-3-[2-(pirrolidin-3yl)ethyliden]-6alpha-hydroxymethylandrostane-7,17-dione]	4600	–	–	–	–
C[C@]12CCC(=CCC3CCNCC3)CC1[C@@H](CO)C(=O)C1C2CC[C@]2(C)C(=O)CCC12 (mixture of isomers) [CVie405, (E,Z)-3-[2-(piperidin-4-yl)ethyliden]-6alpha-hydroxymethylandrostane-7,17-dione]	7900	–	–	–	–
CNCCCCC=C1CC[C@]2(C)C3CC[C@]4(C)C(=O)CCC4C3[C@H](O)[C@H](CO)C2C1 (mixture of isomers) [CVie406, (E,Z)-3-(5-N-methylaminopentyliden)-6alpha-hydroxymethyl-7alpha-hydroxyandrostane-17-one]	1900	–	–	–	–
C[C@]12CC/C(=C\CCC(=O)O)CC1[C@@H](O)C[C@@H]1[C@@H]2CC[C@]2(C)C(=O)CC[C@@H]12 (stereo partly drawn) [CVie201, (E)-4-(6alpha-hydroxy-17-oxoandrostane-3-yliden)butyric acid]	> 100000	−15%*	454 ± 53.2	–	% change in Ca2+ Kd vs control (negative = decrease) (SERCA2a; compound 10 nM): −14%*; Kd (SERCA2a; [2]): 459 ± 57.1 nM
C[C@]12CC/C(=C/CCC(=O)O)CC1[C@@H](O)C[C@@H]1[C@@H]2CC[C@]2(C)C(=O)CC[C@@H]12 (stereo partly drawn) [CVie202, (Z)-4-(6alpha-hydroxy-17-oxoandrostane-3-yliden)butyric acid]	> 100000	−7%	436 ± 24.9	−6%	% change in Ca2+ Kd vs control (negative = decrease) (SERCA2a; compound 10 nM): −4%; Kd (SERCA2a; [2]): 448 ± 9.4 nM; Kd (SERCA2a; [4]): 437 ± 26.4 nM
C[C@]12CC/C(=C\CCC(=O)O)CC1[C@H](O)C[C@@H]1[C@@H]2CC[C@]2(C)C(=O)CC[C@@H]12 (stereo partly drawn) [CVie203, (E)-4-(6beta-hydroxy-17-oxoandrostane-3-yliden)butyric acid]	> 100000	−15%*	386 ± 33.3	−14%*	% change in Ca2+ Kd vs control (negative = decrease) (SERCA2a; compound 10 nM): −8%; Kd (SERCA2a; [2]): 418 ± 36.5 nM; Kd (SERCA2a; [4]): 393 ± 31.3 nM
C[C@]12CC/C(=C/CCC(=O)O)CC1[C@H](O)C[C@@H]1[C@@H]2CC[C@]2(C)C(=O)CC[C@@H]12 (stereo partly drawn) [CVie204, (Z)-4-(6beta-hydroxy-17-oxoandrostane-3-yliden)butyric acid]	> 100000	+13%	493 ± 107	−3%	Kd (SERCA2a; [4]): 424 ± 82.7 nM
C[C@]12CC/C(=C\CC3CNC3)CC1[C@@H](O)C[C@@H]1[C@@H]2CC[C@]2(C)C(=O)CC[C@@H]12 (stereo partly drawn) [CVie205, (E)-3-[2-(azetidin-3-yl)ethyliden]-6alpha-hydroxyandrostane-17-one]	7000	−16.7%*	–	−13.1%*	Kd (SERCA2a; [5]): 656 ± 56.6 nM; Kd (SERCA2a; [6]): 683 ± 46.4 nM
C[C@]12CC/C(=C/CC3CNC3)CC1[C@@H](O)C[C@@H]1[C@@H]2CC[C@]2(C)C(=O)CC[C@@H]12 (stereo partly drawn) [CVie206, (Z)-3-[2-(azetidin-3-yl)ethyliden]-6alpha-hydroxyandrostane-17-one]	5900	−13.7%*	–	−15.1%*	Kd (SERCA2a; [5]): 678 ± 86.7 nM; Kd (SERCA2a; [6]): 667 ± 55.6 nM
C[C@]12CC=C(CCCCN)CC1[C@@H](O)CC1C2CC[C@]2(C)C(=O)CCC12 (stereo partly drawn) [CVie207, (E)-3-(4-aminobutyl)-6alpha-hydroxyandrost-2-ene-17-one hydroiodide]	3900	–	–	–	–
C[C@]12CC=C(CCC3CCNCC3)CC1[C@@H](O)C[C@@H]1[C@@H]2CC[C@]2(C)C(=O)CC[C@@H]12 (stereo partly drawn) [CVie208, 3-[2-(piperidin-4-yl)ethyl]-6alpha-hydroxyandrost-2-ene-17-one hydroiodide]	10400	−19.1%*	362 ± 72.2	−21.7%	Kd (SERCA2a; [4]): 350 ± 109 nM
C[C@]12CC/C(=C\CC3CCNCC3)CC1[C@@H](O)C[C@@H]1[C@@H]2CC[C@]2(C)C(=O)CC[C@@H]12 (stereo partly drawn) [CVie210, (E)-3-[2-(piperidin-4-yl)ethyliden]-6alpha-hydroxyandrostane-17-one]	13100	–	–	–	–
C[C@]12CC/C(=C/CC3CCNCC3)CC1[C@@H](O)C[C@@H]1[C@@H]2CC[C@]2(C)C(=O)CC[C@@H]12 (stereo partly drawn) [CVie211, (Z)-3-[2-(piperidin-4-yl)ethyliden]-6alpha-hydroxyandrostane-17-one]	8300	–	–	–	–
C[C@]12CC[C@H](CCC3CCNCC3)CC1[C@@H](O)C[C@@H]1[C@@H]2CC[C@]2(C)C(=O)CC[C@@H]12 (stereo partly drawn) [CVie212, 3beta-[2-(piperidin-4-yl)ethyl]-6alpha-hydroxyandrostane-17-one]	3500	−20.2%*	–	–	% change in Ca2+ Kd vs control (negative = decrease) (SERCA2a; compound 10 nM): −19.6%*; Kd (SERCA2a; [7]): 409 ± 121 nM; Kd (SERCA2a; [5]): 406 ± 82.9 nM
CCOC(=O)C[C@H]1CC[C@]2(C)C3CC[C@]4(C)C(=O)CCC4C3C[C@H](O)C2C1 (stereo partly drawn) [CVie213, Ethyl (6alpha-hydroxy-17-ketoandrostane-3beta-yl) acetate]	> 100000	−23%*	378 ± 114	−17%*	% change in Ca2+ Kd vs control (negative = decrease) (SERCA2a; compound 10 nM): −12%; Kd (SERCA2a; [2]): 432 ± 129 nM; Kd (SERCA2a; [4]): 407 ± 124 nM
C[C@]12CC[C@H](CCCC(=O)O)CC1[C@H](O)C[C@@H]1[C@@H]2CC[C@]2(C)C(=O)CC[C@@H]12 (stereo partly drawn) [CVie215, 4-(6beta-hydroxy-17-oxoandrostane-3-yl) butyric acid]	> 100000	–	437 ± 74.1	–	Kd (SERCA2a; compound 1 nM, read-out: Kd Ca2+ (nM) mean ± SD): 530 ± 47.9 nM; Kd (SERCA2a; [2]): 459 ± 80.3 nM
CCOC(=O)CCC[C@H]1CC[C@]2(C)C3CC[C@]4(C)C(=O)CCC4C3C[C@H](O)C2C1 (stereo partly drawn) [CVie217, 4-(6alpha-hydroxy-17-oxoandrostane-3-yl) ethylbutiroate]	> 100000	−20%*	–	−29.4%*	% change in Ca2+ Kd vs control (negative = decrease) (SERCA2a; compound 1 nM): −20%; % change in Ca2+ Kd vs control (negative = decrease) (SERCA2a; compound 10 nM): −24.7%*; Kd (SERCA2a; [8]): 763 ± 103 nM; Kd (SERCA2a; [7]): 719 ± 142 nM; Kd (SERCA2a; [5]): 764 ± 120 nM; Kd (SERCA2a; [6]): 674 ± 150 nM
CCOC(=O)CCCCC[C@H]1CC[C@]2(C)C3CC[C@]4(C)C(=O)CCC4C3C[C@H](O)C2C1 (stereo partly drawn) [CVie218]	> 100000	−19.1%*	–	−15%*	% change in Ca2+ Kd vs control (negative = decrease) (SERCA2a; compound 1 nM): −3%; % change in Ca2+ Kd vs control (negative = decrease) (SERCA2a; compound 10 nM): −7%*; Kd (SERCA2a; [8]): 705 ± 88.8 nM; Kd (SERCA2a; [7]): 677 ± 13.8 nM; Kd (SERCA2a; [5]): 587 ± 50.5 nM; Kd (SERCA2a; [6]): 619 ± 48 nM
CNCCCC/C=C1\CC[C@]2(C)C3CC[C@]4(C)C(=O)CCC4C3C(=O)[C@H](CO)C2C1 (stereo partly drawn) [CVie401, (E,Z)-3-(5-N-methylaminopentyliden]-6alpha-hydroxymethylandrostane-7,17-dione]	24000	–	–	–	–
C[C@]12CC/C(=C\CC3CNC3)CC1[C@@H](CO)C(=O)C1C2CC[C@]2(C)C(=O)CCC12 (stereo partly drawn) [CVie403]	2900	–	–	–	–
C[C@]12CC[C@H](CCC3CNC3)CC1[C@@H](CO)C(=O)C1C2CC[C@]2(C)C(=O)CCC12 (stereo partly drawn) [CVie407]	3500	−8.9%	–	0%	Kd (SERCA2a; [5]): 390 ± 91.4 nM; Kd (SERCA2a; [6]): 428 ± 87.3 nM
C[C@]12CC[C@H](CCC3CNC3)CC1[C@@H](CO)[C@@H](O)C1C2CC[C@]2(C)C(=O)CCC12 (stereo partly drawn) [CVie408]	3300	−20.7%*	–	−21%*	Kd (SERCA2a; [5]): 356 ± 33.8 nM; Kd (SERCA2a; [6]): 355 ± 66.9 nM
C[C@]12CC[C@H](CCC3CCNC3)CC1[C@@H](CO)C(=O)C1C2CC[C@]2(C)C(=O)CCC12 (stereo partly drawn) [CVie409, 3beta-[2-(pirrolidin-3yl)ethyl]-6alpha-hydroxymethylandrostane-7,17-dione]	3400	–	–	–	–
C[C@]12CC[C@H](CCC3CCNC3)CC1[C@@H](CO)[C@@H](O)C1C2CC[C@]2(C)C(=O)CCC12 (stereo partly drawn) [CVie410, 3beta-[2-(pirrolidin-3yl)ethyl]6alpha-hydroxymethyl-7alpha-hydroxyandrostane-17-one]	3700	–	–	–	–
C[C@]12CC[C@H](CCC3CCNCC3)CC1[C@@H](CO)C(=O)[C@@H]1[C@@H]2CC[C@]2(C)C(=O)CC[C@@H]12 (stereo partly drawn) [CVie411, 3beta-[2-(piperidin-4-yl)ethyl]-6alpha-hydroxymethylandrostane-7,17-dione]	1900	0%	428 ± 76.6	−4.9%	Kd (SERCA2a; [4]): 407 ± 111 nM
